Measurements: patent US20230330027A1, “PHARMACEUTICAL PREPARATION” (MERCK PATENT GMBH, priority 2020, published 2023)

Tests used:
[1] = Particle size distribution by laser diffraction (Malvern Mastersizer 2000); assay type: physicochemical; conditions: no unit in Table 4; d values in micrometers, volume distribution
Description: The particle size distribution of 8-(1,3-Dimethyl-1H-pyrazol-4-yl)-1-(Sa)-(3-fluoro-5-methoxy-pyridin-4-yl)-7-methoxy-3-methyl-1,3-dihydro-imidazo[4,5-c]quinolin-2-one is measured by laser diffraction on a Malvern Mastersizer 2000 (wet method using Hydro 2000S; sample amount of 100 mg dispersed in 5 ml silicone oil; stirrer speed 2000 rpm, no sonication, measuring time of 7.5 s; obscuration of 10-15%). The d values refer to the particle size distribution in micrometers […] whereby the dl 0 value refers to the particle diameter in micrometers at which 10 percent of the volume distribution of the particles are smaller than such value, the d50 value refers to the particle diameter in micrometers at which 50 percent of the volume distribution of the particles are smaller than such value and the d90 value refers to the particle diameter in micrometers at which 90 percent of the volume distribution of the particles are smaller than such value.

[2] = Thermodynamic stability of anhydrous polymorphic forms; assay type: physicochemical; conditions: among anhydrous Forms A1, A2, A3
[3] = target: phosphodiesterase (PDE) 2A1 (Homo sapiens, UniProt O00408); test: Inhibition of PDE2A1; assay type: biochemical; conditions: compared to the (Ra) atropisomer and the unseparated compound
Chain of phosphodiesterase (PDE) 2A1 (O00408 1-920 isoform O00408-2): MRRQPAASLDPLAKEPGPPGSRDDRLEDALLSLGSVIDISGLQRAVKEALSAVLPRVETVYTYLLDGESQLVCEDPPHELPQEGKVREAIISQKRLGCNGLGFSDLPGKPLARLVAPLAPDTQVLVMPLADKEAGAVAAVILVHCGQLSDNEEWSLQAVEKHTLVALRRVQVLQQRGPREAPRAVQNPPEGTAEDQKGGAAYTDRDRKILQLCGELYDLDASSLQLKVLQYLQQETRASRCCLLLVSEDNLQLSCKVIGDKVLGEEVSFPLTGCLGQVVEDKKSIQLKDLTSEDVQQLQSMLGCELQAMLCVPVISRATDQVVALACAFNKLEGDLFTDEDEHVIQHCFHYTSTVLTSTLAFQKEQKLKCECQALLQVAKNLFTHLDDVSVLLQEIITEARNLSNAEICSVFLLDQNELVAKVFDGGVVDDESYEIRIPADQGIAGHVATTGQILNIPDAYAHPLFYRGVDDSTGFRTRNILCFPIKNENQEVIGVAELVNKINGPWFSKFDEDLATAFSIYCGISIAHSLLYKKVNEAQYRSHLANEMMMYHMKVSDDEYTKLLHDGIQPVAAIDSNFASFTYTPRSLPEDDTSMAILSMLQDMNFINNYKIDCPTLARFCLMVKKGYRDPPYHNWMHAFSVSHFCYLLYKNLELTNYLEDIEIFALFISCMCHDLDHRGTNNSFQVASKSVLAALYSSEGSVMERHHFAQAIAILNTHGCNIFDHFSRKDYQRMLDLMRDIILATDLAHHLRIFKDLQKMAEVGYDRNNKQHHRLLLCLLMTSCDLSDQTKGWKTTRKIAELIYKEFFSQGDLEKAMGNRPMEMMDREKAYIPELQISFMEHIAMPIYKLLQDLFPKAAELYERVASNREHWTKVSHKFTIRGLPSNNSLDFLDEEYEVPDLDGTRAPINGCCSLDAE

ATM pCHK2 pathway = test: Inhibition of the ATM pCHK2 pathway; assay type: cell-based; conditions: compared to the (Ra) atropisomer and the unseparated compound
PDE4A1A = PDE4A1A (Homo sapiens, UniProt P27815); test: Inhibition of PDE4A1A; assay type: biochemical; conditions: compared to the (Ra) atropisomer and the unseparated compound
Chain of PDE4A1A (P27815 1-647 isoform P27815-4): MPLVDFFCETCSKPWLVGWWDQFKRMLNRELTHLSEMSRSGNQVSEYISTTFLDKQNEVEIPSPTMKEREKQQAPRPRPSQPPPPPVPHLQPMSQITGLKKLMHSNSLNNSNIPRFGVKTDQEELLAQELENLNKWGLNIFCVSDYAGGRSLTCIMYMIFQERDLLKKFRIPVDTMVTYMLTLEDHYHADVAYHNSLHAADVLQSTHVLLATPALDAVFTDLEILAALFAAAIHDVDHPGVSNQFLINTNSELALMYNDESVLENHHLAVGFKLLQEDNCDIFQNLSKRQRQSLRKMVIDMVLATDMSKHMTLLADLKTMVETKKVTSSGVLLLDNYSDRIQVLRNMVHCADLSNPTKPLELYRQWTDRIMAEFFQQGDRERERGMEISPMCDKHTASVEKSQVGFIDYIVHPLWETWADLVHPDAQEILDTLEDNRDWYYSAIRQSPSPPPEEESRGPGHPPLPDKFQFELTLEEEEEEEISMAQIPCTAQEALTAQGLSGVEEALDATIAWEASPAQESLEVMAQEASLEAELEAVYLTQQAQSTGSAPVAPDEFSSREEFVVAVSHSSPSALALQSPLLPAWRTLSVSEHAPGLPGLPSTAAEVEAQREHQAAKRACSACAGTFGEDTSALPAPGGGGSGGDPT

Microsomal clearance = assay type: in vitro ADME; conditions: compared to the (Ra) atropisomer and the unseparated compound
PDE4D2 = PDE4D2 (Homo sapiens, UniProt Q08499); test: Inhibition of PDE4D2; assay type: biochemical; conditions: compared to the (Ra) atropisomer and the unseparated compound
Chain of PDE4D2 (Q08499 303-809 limits assumed): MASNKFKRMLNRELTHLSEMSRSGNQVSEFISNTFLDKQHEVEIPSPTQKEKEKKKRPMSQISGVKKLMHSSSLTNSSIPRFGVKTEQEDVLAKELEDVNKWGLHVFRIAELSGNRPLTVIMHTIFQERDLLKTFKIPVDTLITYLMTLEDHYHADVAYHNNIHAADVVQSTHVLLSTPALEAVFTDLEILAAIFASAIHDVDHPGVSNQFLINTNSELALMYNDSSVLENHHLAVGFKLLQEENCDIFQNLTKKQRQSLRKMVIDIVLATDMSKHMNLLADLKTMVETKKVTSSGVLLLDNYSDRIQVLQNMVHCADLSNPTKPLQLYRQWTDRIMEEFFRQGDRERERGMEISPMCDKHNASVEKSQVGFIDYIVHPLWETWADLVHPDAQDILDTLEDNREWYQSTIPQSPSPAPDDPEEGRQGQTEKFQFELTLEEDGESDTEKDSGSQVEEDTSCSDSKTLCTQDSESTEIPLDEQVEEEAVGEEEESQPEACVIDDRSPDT

[4] = Selectivity compared to the other atropisomer and the mixture; conditions: compared to the (Ra) atropisomer and the unseparated compound

| Dv10 [1] | Dv50 [1] | Dv90 [1] | Inhibition of phosphodiesterase (PDE) 2A1 [3] | Inhibition of PDE4A1A (PDE4A1A) | Microsomal clearance values (Microsomal clearance) | Inhibition of PDE4D2 (PDE4D2) | Structure (SMILES) | Thermodynamic stability of the solid form [2] | Inhibition of the ATM pCHK2 pathway (ATM pCHK2 pathway) | Selectivity [4] |
| --- | --- | --- | --- | --- | --- | --- | --- | --- | --- | --- |
| 19 µm | 64 µm | 202 µm | – | – | – | – | COc1cc2ncc3c(c2cc1-c1cn(C)nc1C)n(-c1c(F)cncc1OC)c(=O)n3C (atropisomer, axis not shown; (Sa)) [Compound 1 Anhydrous Form A2 OPT, 8-(1,3-Dimethyl-1H-pyrazol-4-yl)-1-(Sa)-(3-fluoro-5-methoxy-pyridin-4-yl)-7-methoxy-3-methyl-1,3-dihydro-imidazo[4,5-c]quinolin-2-one] | – | – | – |
| 9 µm | 63 µm | 599 µm | – | – | – | – | COc1cc2ncc3c(c2cc1-c1cn(C)nc1C)n(-c1c(F)cncc1OC)c(=O)n3C (atropisomer, axis not shown; (Sa)) [Compound 1 Anhydrous Form A2, 8-(1,3-Dimethyl-1H-pyrazol-4-yl)-1-(Sa)-(3-fluoro-5-methoxy-pyridin-4-yl)-7-methoxy-3-methyl-1,3-dihydro-imidazo[4,5-c]quinolin-2-one] | thermodynamically most stable anhydrous form | – | – |
| – | – | – | lowest inhibition | lowest inhibition | best microsomal clearance values | lowest inhibition | COc1cc2ncc3c(c2cc1-c1cn(C)nc1C)n(-c1c(F)cncc1OC)c(=O)n3C (atropisomer, axis not shown; (Sa)) [Compound 1, 8-(1,3-Dimethyl-1H-pyrazol-4-yl)-1-(Sa)-(3-fluoro-5-methoxy-pyridin-4-yl)-7-methoxy-3-methyl-1,3-dihydro-imidazo[4,5-c]quinolin-2-one] | – | at lower concentrations | better selectivity |
